Reference: US20060069132A1, “Azolecarboxamide herbicides” (priority 2004, published 2006)

Tests used:
lambsquarters = assay: Test C pre-/postemergence herbicide test; assay type: in vivo, Chenopodium album
How it was run: (§1)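 Visual injury scores run from 0 (no effect) to 100 (complete control), assessed relative to untreated controls 12 to 14 days after treatment in the greenhouse. Chemicals were formulated in a non-phytotoxic solvent mixture with surfactant and applied to soil after planting or to emerged plants at the 1- to 4-leaf stage.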

[1] = system: smallflower umbrella sedge; assay: Test C flooded paddy test; assay type: in vivo, Cyperus difformis; conditions: for Plant response rating, Sedge, Umbrella: 500 g ai/ha, visual rating after 12 to 14 days
[2] = system: common (oilseed) sunflower; assay: Test C pre-/postemergence herbicide test; assay type: in vivo, Helianthus annuus; conditions: for Sunflower plant response rating: Preemergence, scale 0 to 100, 0 no effect, 100 complete control
How it was run: as §1

woolly cupgrass = assay: Test C pre-/postemergence herbicide test; assay type: in vivo, Eriochloa villosa
How it was run: as §1

rice [3] = assay: Test B pre-/postemergence herbicide test; assay type: in vivo, Oryza sativa; conditions: preemergence
How it was run: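 Herbicidal effect was judged by eye on a 0–100 scale after plants stood 13 to 15 days in the greenhouse following pre- or postemergence treatment with surfactant-containing formulations.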

rice [4] = assay: Test C flooded paddy test; assay type: in vivo, Oryza sativa; conditions: for Plant response rating, Rice: 500 g ai/ha, visual rating after 12 to 14 days
How it was run: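 Postemergence sprays applied to plants 2 to 18 cm tall (1- to 4-leaf stage); paddy species grown to 2-leaf stage under flooding. After 12 to 14 days in greenhouse, visual rating versus untreated controls on 0–100 scale (0 no effect, 100 complete control).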

giant foxtail = assay: Test C pre-/postemergence herbicide test; assay type: in vivo, Setaria faberi
How it was run: as §1

large crabgrass = assay: Test C pre-/postemergence herbicide test; assay type: in vivo, Digitaria sanguinalis
How it was run: as §1

pigweed = assay: Test C pre-/postemergence herbicide test; assay type: in vivo, Amaranthus retroflexus
How it was run: as §1

[5] = 125 g ai/ha, scale 0 (no effect) to 100 (complete control), visual, 12 to 14 days, preemergence
[6] = Preemergence, 500 g ai/ha, scale 0 to 100, 0 no effect, 100 complete control
[7] = 62 g ai/ha, scale 0 to 100 (0 no effect, 100 complete control)
[8] = 125 g ai/ha, scale 0 to 100 (0 no effect, 100 complete control)
[9] = 250 g ai/ha, scale of 0 to 100, 0 is no effect, 100 is complete control
[10] = scale 0 to 100 (0 no effect, 100 complete control)
[11] = 250 g ai/ha, scale 0 to 100 (0 no effect, 100 complete control), visual, 12 to 14 days, preemergence
[12] = 500 g ai/ha, visual rating 0-100, 0 no effect, 100 complete control
[13] = 62 g ai/ha, preemergence, scale 0 to 100
[14] = 125 g ai/ha, 0 = no effect, 100 = complete control
[15] = 250 g ai/ha, scale 0-100, preemergence
[16] = 500 g ai/ha, scale 0 to 100 (0 no effect, 100 complete control), visual, 12 to 14 days, preemergence
[17] = 500 g ai/ha, visual rating, 0 = no effect, 100 = complete control
[18] = Postemergence, 500 g ai/ha, scale 0 to 100
[19] = Postemergence, 250 g ai/ha, scale 0 to 100, 0 no effect, 100 complete control
[20] = postemergence, 125 g ai/ha, scale 0 to 100
[21] = postemergence, 62 g ai/ha, scale 0 to 100

CCn1nc(C(C)(C)C)cc1C(=O)Nc1cc(C#N)ccc1F [Compound 140]
Plant response rating (0 = no effect, 100 = complete control), Lambsquarters (lambsquarters; 62 g ai/ha, preemergence): 75 | Plant response rating, Lambsquarters (lambsquarters; [5]): 85 | Lambsquarters plant response rating (lambsquarters; [6]): 100 | Sedge, Umbrella plant response rating [1, 7]: 0 | Sedge, Umbrella plant response rating [1, 8]: 20 | Sedge, Umbrella plant response rating [1, 9]: 45 | Plant response rating, Sedge, Umbrella [1, 10]: 65 | Plant response rating (0 = no effect, 100 = complete control), Sunflower ([2]; 62 g ai/ha, preemergence): 0 | Plant response rating, Sunflower [2, 5]: 0 | Sunflower plant response rating ([2]; 500 g ai/ha): 0 | Plant response rating (0 = no effect, 100 = complete control), Cupgrass, Woolly (woolly cupgrass; 62 g ai/ha, preemergence): 0 | Plant response rating, Cupgrass, Woolly (woolly cupgrass; [5]): 0 | Plant response rating, Cupgrass, Woolly (woolly cupgrass; [11]): 0 | Cupgrass, Woolly plant response rating (woolly cupgrass; [6]): 45 | Plant response rating, Rice (rice [3]; [12]): 70 | Plant response rating, Rice (rice [3]; 125 g ai/ha, 0 to 100 scale, 0 is no effect, 100 is complete control): 0 | Rice plant response rating (rice [4]; [7]): 0 | Rice plant response rating (rice [4]; [8]): 0 | Rice plant response rating (rice [4]; [9]): 0 | Plant response rating, Rice (rice [4]; [10]): 0 | Plant response rating (0 = no effect, 100 = complete control), Foxtail, Giant (giant foxtail; 62 g ai/ha, preemergence): 0 | Plant response rating, Foxtail, Giant (giant foxtail; [5]): 25 | Plant response rating, Foxtail, Giant (giant foxtail; [11]): 65 | Foxtail, Giant plant response rating (giant foxtail; [6]): 85 | Plant response rating (0 = no effect, 100 = complete control), Crabgrass, Large (large crabgrass; 62 g ai/ha, preemergence): 0 | Plant response rating, Crabgrass, Large (large crabgrass; [5]): 65 | Plant response rating, Crabgrass, Large (large crabgrass; [11]): 75 | Crabgrass, Large plant response rating (large crabgrass; [6]): 100 | Plant response rating (0 = no effect, 100 = complete control), Pigweed (pigweed; 62 g ai/ha, preemergence): 100 | Plant response rating, Pigweed (pigweed; [5]): 100 | Pigweed plant response rating (pigweed; [6]): 100

CCc1nn(C(C)(C)C)cc1C(=O)Nc1cccc(C(C)=NO)c1 [Compound 188]
Plant response rating, Lambsquarters (lambsquarters; [13]): 95 | Plant response rating, Lambsquarters (lambsquarters; [5]): 100 | Lambsquarters plant response rating (lambsquarters; [6]): 100 | Sedge, Umbrella plant response rating [1, 7]: 30 | Sedge, Umbrella plant response rating [1, 8]: 75 | Sedge, Umbrella plant response rating [1, 9]: 80 | Plant response rating, Sedge, Umbrella [1, 10]: 85 | Plant response rating, Sunflower [2, 13]: 0 | Plant response rating, Sunflower [2, 5]: 0 | Sunflower plant response rating ([2]; 500 g ai/ha): 0 | Plant response rating, Cupgrass, Woolly (woolly cupgrass; [13]): 0 | Plant response rating, Cupgrass, Woolly (woolly cupgrass; [5]): 60 | Plant response rating, Cupgrass, Woolly (woolly cupgrass; [11]): 70 | Cupgrass, Woolly plant response rating (woolly cupgrass; [6]): 75 | Rice plant response rating (0 to 100 scale) (rice [3]; [14]): 50 | Plant response rating, Rice (rice [3]; [12]): 70 | Rice plant response rating (rice [4]; [7]): 35 | Rice plant response rating (rice [4]; [8]): 45 | Rice plant response rating (rice [4]; [9]): 65 | Plant response rating, Rice (rice [4]; [10]): 75 | Plant response rating, Foxtail, Giant (giant foxtail; [13]): 0 | Plant response rating, Foxtail, Giant (giant foxtail; [5]): 55 | Plant response rating, Foxtail, Giant (giant foxtail; [11]): 70 | Foxtail, Giant plant response rating (giant foxtail; [6]): 100 | Plant response rating, Crabgrass, Large (large crabgrass; [13]): 95 | Plant response rating, Crabgrass, Large (large crabgrass; [5]): 95 | Plant response rating, Crabgrass, Large (large crabgrass; [11]): 95 | Crabgrass, Large plant response rating (large crabgrass; [6]): 100 | Plant response rating, Pigweed (pigweed; [13]): 95 | Plant response rating, Pigweed (pigweed; [5]): 95 | Pigweed plant response rating (pigweed; [6]): 100

CCn1nc(C2(C)CC2)cc1C(=O)Nc1cccc(C(=O)N2CC=CC2)c1 [Compound 304]
Plant response rating, Lambsquarters (lambsquarters; [13]): 0 | Plant response rating, Lambsquarters (lambsquarters; [5]): 100 | Plant response rating, Lambsquarters (lambsquarters; [15]): 100 | Plant response rating, Lambsquarters (lambsquarters; [16]): 100 | Sedge, Umbrella plant response rating ([1]; 62 g ai/ha, scale 0 to 100): 75 | Sedge, Umbrella plant response rating [1, 8]: 90 | Sedge, Umbrella plant response rating [1, 9]: 95 | Plant response rating, Sedge, Umbrella [1, 10]: 95 | Plant response rating, Sunflower [2, 13]: 0 | Plant response rating, Sunflower [2, 15]: 0 | Plant response rating, Sunflower [2, 16]: 5 | Plant response rating, Cupgrass, Woolly (woolly cupgrass; [13]): 5 | Plant response rating, Cupgrass, Woolly (woolly cupgrass; [5]): 10 | Plant response rating, Cupgrass, Woolly (woolly cupgrass; [15]): 60 | Plant response rating, Cupgrass, Woolly (woolly cupgrass; [16]): 80 | Rice plant response rating (0 to 100 scale) (rice [3]; [14]): 0 | Plant response rating, Rice (rice [3]; [17]): 20 | Rice plant response rating (rice [4]; 62 g ai/ha, scale 0 to 100): 45 | Rice plant response rating (rice [4]; [8]): 60 | Rice plant response rating (rice [4]; [9]): 70 | Plant response rating, Rice (rice [4]; [10]): 75 | Plant response rating, Foxtail, Giant (giant foxtail; [13]): 5 | Plant response rating, Foxtail, Giant (giant foxtail; [5]): 50 | Plant response rating, Foxtail, Giant (giant foxtail; [15]): 60 | Plant response rating, Foxtail, Giant (giant foxtail; [16]): 90 | Plant response rating, Crabgrass, Large (large crabgrass; [13]): 35 | Plant response rating, Crabgrass, Large (large crabgrass; [5]): 100 | Plant response rating, Crabgrass, Large (large crabgrass; [15]): 100 | Plant response rating, Crabgrass, Large (large crabgrass; [16]): 100 | Plant response rating, Pigweed (pigweed; [13]): 100 | Plant response rating, Pigweed (pigweed; [5]): 100 | Plant response rating, Pigweed (pigweed; [15]): 100 | Plant response rating, Pigweed (pigweed; [16]): 100

CCn1nc(C(C)(C)C)cc1C(=O)Nc1cccc(OC(F)(F)C(F)F)c1 [Compound 333]
Plant response rating, Lambsquarters (lambsquarters; [13]): 95 | Plant response rating, Lambsquarters (lambsquarters; [5]): 100 | Plant response rating, Lambsquarters (lambsquarters; [15]): 100 | Plant response rating, Lambsquarters (lambsquarters; [16]): 100 | Lambsquarters plant response rating (lambsquarters; [18]): 100 | Plant response rating, Lambsquarters (lambsquarters; [19]): 80 | Plant response rating, Lambsquarters (lambsquarters; [20]): 80 | Plant response rating, Lambsquarters (lambsquarters; [21]): 60 | Sedge, Umbrella plant response rating ([1]; 62 g ai/ha, scale 0 to 100): 0 | Sedge, Umbrella plant response rating [1, 8]: 15 | Sedge, Umbrella plant response rating [1, 9]: 30 | Plant response rating, Sedge, Umbrella [1, 10]: 80 | Plant response rating, Sunflower [2, 13]: 0 | Plant response rating, Sunflower [2, 15]: 0 | Plant response rating, Sunflower [2, 16]: 0 | Plant response rating, Cupgrass, Woolly (woolly cupgrass; [13]): 0 | Plant response rating, Cupgrass, Woolly (woolly cupgrass; [5]): 0 | Plant response rating, Cupgrass, Woolly (woolly cupgrass; [15]): 0 | Plant response rating, Cupgrass, Woolly (woolly cupgrass; [16]): 30 | Cupgrass, Woolly plant response rating (woolly cupgrass; [18]): 10 | Plant response rating, Cupgrass, Woolly (woolly cupgrass; [19]): 5 | Plant response rating, Cupgrass, Woolly (woolly cupgrass; [20]): 0 | Plant response rating, Cupgrass, Woolly (woolly cupgrass; [21]): 0 | Plant response rating (0 to 100 scale), Rice (rice [3]; 125 g ai/ha, 0 is no effect, 100 is complete control): 0 | Plant response rating, Rice (rice [3]; [17]): 0 | Rice plant response rating (rice [4]; 62 g ai/ha, scale 0 to 100): 0 | Rice plant response rating (rice [4]; [8]): 0 | Rice plant response rating (rice [4]; [9]): 15 | Plant response rating, Rice (rice [4]; [10]): 20 | Plant response rating, Foxtail, Giant (giant foxtail; [13]): 0 | Plant response rating, Foxtail, Giant (giant foxtail; [5]): 10 | Plant response rating, Foxtail, Giant (giant foxtail; [15]): 50 | Plant response rating, Foxtail, Giant (giant foxtail; [16]): 75 | Foxtail, Giant plant response rating (giant foxtail; [18]): 10 | Plant response rating, Foxtail, Giant (giant foxtail; [19]): 10 | Plant response rating, Foxtail, Giant (giant foxtail; [20]): 5 | Plant response rating, Foxtail, Giant (giant foxtail; [21]): 5 | Plant response rating, Crabgrass, Large (large crabgrass; [13]): 20 | Plant response rating, Crabgrass, Large (large crabgrass; [5]): 70 | Plant response rating, Crabgrass, Large (large crabgrass; [15]): 100 | Plant response rating, Crabgrass, Large (large crabgrass; [16]): 100 | Crabgrass, Large plant response rating (large crabgrass; [18]): 10 | Plant response rating, Crabgrass, Large (large crabgrass; [19]): 5 | Plant response rating, Crabgrass, Large (large crabgrass; [20]): 5 | Plant response rating, Crabgrass, Large (large crabgrass; [21]): 0 | Plant response rating, Pigweed (pigweed; [13]): 100 | Plant response rating, Pigweed (pigweed; [5]): 100 | Plant response rating, Pigweed (pigweed; [15]): 100 | Plant response rating, Pigweed (pigweed; [16]): 100 | Pigweed plant response rating (pigweed; [18]): 100 | Plant response rating, Pigweed (pigweed; [19]): 100 | Plant response rating, Pigweed (pigweed; [20]): 100 | Plant response rating, Pigweed (pigweed; [21]): 65
